Measurements taken from US12421227B2, “Ribociclib salts and solid state forms thereof” (ASSIA CHEMICAL INDUSTRIES LTD., priority 2017, dated 2025).

Assays:
[1] = cited from earlier work
[2] = exposure to 90% RH; cited from earlier work

For Ribociclib succinate, which “sorption/desorption behavior, hydrate formation” value ([1]; 90% RH condition in each cycle) is on record?
The value was “formation of hydrate form is taking place”.

What about the moisture absorbed ([1]; at 90% RH in each cycle) of the same substance?
The moisture absorbed was “up to 2%”.

And the hygroscopic behavior ([1]; at high humidity conditions)?
The hygroscopic behavior was “slight hygroscopic behavior”.

What about the “physical form on exposure to humidity” value [2] of the same substance?
Its value is “change in physical form”.

Which hygroscopicity does the source give for Ribociclib succinate [Form B] here?
The hygroscopicity was “negligible hygroscopicity”.
